Data set [1] can be described thus: Inhibition of bovine trypsin. The arrangement: species or system Bos taurus.
A further data set concerns the target Prothrombin (Homo sapiens, UniProt P00734). The data set can be described thus: Inhibition of human thrombin.
Data set [2] in a line: Dissociation constant, pKa of the compound. Type of data set: physicochemical.

The structures appear in SMILES notation.

One may read the IC50 as the point on the concentration scale where inhibition reaches its midpoint. The low end stands for higher potency, the high end for lower potency. On to `CC1=C(CC(=O)NCc2ccc(C(=N)N)cc2)C(=O)N(NS(=O)(=O)c2ccccc2)CC1`, for which the concentration for half-maximal inhibition (IC50) in data set [1] was 766 nM; against Prothrombin, 42 nM. Usually pKa stands for the negative logarithm of the acid dissociation constant. A higher pKa goes with a group that holds its proton tightly. In turn, `COc1cccc(S(=O)(=O)NN2CCC(C)=C(CC(=O)NCc3ccc(C(=N)N)cc3)C2=O)c1` registered a pKa in data set [2] of 8.8. In addition, the half-inhibitory concentration (IC50) in data set [1] stood at 860 nM; on Prothrombin, 11 nM. Consider `Cc1ccn(NS(=O)(=O)c2cccc3ccccc23)c(=O)c1CC(=O)NCc1ccc(C(=N)N)cc1`, for which the results for the IC50 (in data set [1]; against Prothrombin) were 5.8 nM and 17100 nM, respectively. Take `CC1=C(CC(=O)NCc2ccc(C(=N)N)cc2)C(=O)N(NS(=O)(=O)c2cc(Cl)ccc2Cl)CC1`: the values for the IC50 (in data set [1]; against Prothrombin) were 1250 nM and 10 nM, respectively. As for `CC[C@@H](C)[C@@H](NC(=O)[C@H](O)Cc1ccccc1)C(=O)N1[C@H](C(=O)NCc2ccc(C(=N)N)cc2)C[C@@H]2CCCC[C@@H]21`, inhibition at Prothrombin was half-maximal at 3.3 nM (IC50).

`COc1cccc(S(=O)(=O)Nn2ccc(C)c(CC(=O)NCc3ccc(C(=N)N)cc3)c2=O)c1`: the IC50 in data set [1] amounted to 15600 nM. The compound `Cc1ccn(NS(=O)(=O)c2ccccc2)c(=O)c1CC(=O)NCc1ccc(C(=N)N)cc1` yielded a pKa in data set [2] of 5.9. In data set [1], this compound yielded a concentration for half-maximal inhibition (IC50) of 5770 nM. Compound `Cc1ccc(C)c(S(=O)(=O)Nn2ccc(C)c(CC(=O)NCc3ccc(C(=N)N)cc3)c2=O)c1` showed an IC50 in data set [1] of 7130 nM. For `Cc1ccn(NS(=O)(=O)Cc2ccccc2)c(=O)c1CC(=O)NCc1ccc(C(=N)N)cc1`, the values for the IC50 (in data set [1]; at Prothrombin) were 14900 nM and 3960 nM, respectively. In the case of `N=C(N)c1ccc(CNC(=O)[C@@H]2C[C@@H]3CCCC[C@@H]3N2C(=O)[C@H](NC(=O)[C@H](O)Cc2ccccc2)C(C2CCCCC2)C2CCCCC2)cc1`, the IC50 at Prothrombin amounted to 3.4 nM. As for `COc1cc(C)ccc1S(=O)(=O)NN1CCC(C)=C(CC(=O)NCc2ccc(C(=N)N)cc2)C1=O`, the IC50 amounted to 117 nM in data set [1] and 44 nM against Prothrombin. For `CC(C)[C@@H](Cl)[C@@H](NC(=O)[C@H](O)Cc1ccccc1)C(=O)N1[C@H](C(=O)NCc2ccc(C(=N)N)cc2)C[C@@H]2CCCC[C@@H]21`, at Prothrombin, the half-inhibitory concentration (IC50) was 1.6 nM.

As for `CC1=C(CC(=O)NCc2ccc(C(=N)N)cc2)C(=O)N(NS(=O)(=O)c2ccc(Cl)cc2F)CC1`, the IC50 in data set [1] was determined as 683 nM; at Prothrombin, 106 nM.

As to `CC1=C(CC(=O)NCc2ccc(C(=N)N)cc2)C(=O)N(NS(=O)(=O)c2cc(C)ccc2C)CC1`, the pKa in data set [2] is 8.7. Also, the IC50 amounted to 374 nM in data set [1] and 6 nM against Prothrombin. The compound `COc1cc(C)ccc1S(=O)(=O)Nn1ccc(C)c(CC(=O)NCc2ccc(C(=N)N)cc2)c1=O` came in with a pKa in data set [2] of 6.7. The same compound returned an IC50 in data set [1] of 2020 nM. As for `CC1=C(CC(=O)NCc2ccc(C(=N)N)cc2)C(=O)N(NS(=O)(=O)c2cccc3ccccc23)CC1`, the concentration for half-maximal inhibition (IC50) in data set [1] stood at 8.2 nM; against Prothrombin, 915 nM.

`CC1=C(CC(=O)NCc2ccc(C(=N)N)cc2)C(=O)N(NS(=O)(=O)c2c(C)cccc2Cl)CC1`: the results for the half-inhibitory concentration (IC50) (in data set [1]; against Prothrombin) were 286 nM and 3 nM, respectively.

Compound `CO[C@H](COS(=O)(=O)[O-])C(=O)N[C@@H](C(=O)N1[C@H](C(=O)NCCC2=CC[N+](=C(N)N)C2)C[C@@H]2C[C@H](O)[C@@H](O)C[C@@H]21)[C@H](Cl)C(C)C` [CHLORODYSINOSIN A] displayed a half-inhibitory concentration (IC50) at Prothrombin of 5.8 nM. On the same count and under the same terms, with `CO[C@H](COS(=O)(=O)[O-])C(=O)N[C@H](CC(C)C)C(=O)N1[C@H](C(=O)NCCC2=CC[N+](=C(N)N)C2)C[C@@H]2C[C@H](O)[C@@H](O)C[C@@H]21` [DYSINOSIN A] the figure was 46 nM.

The values are drawn from ChEMBL document CHEMBL1155972, “From natural products to achiral drug prototypes: potent thrombin inhibitors based on P2/P3 dihydropyrid-2-one core motifs” (Bioorg Med Chem Lett, 2009).
